Data taken from patent US20060241177A1, “Novel compounds, pharmaceutical compositions containing same, and methods of use for same” (priority 2002, published 2006).

Biological target: T1, Carnitine Palmitoyltransferase-1 (CPT-1) (Homo sapiens, UniProt P50416)
T1 construct: This assay uses permeabilized cells to measure the transfer of [methyl-^14C]L-carnitine; endogenous in cells; host or cells: MCF-7 cells, digitonin-permeabilized
T1 sequence (P50416 1-773): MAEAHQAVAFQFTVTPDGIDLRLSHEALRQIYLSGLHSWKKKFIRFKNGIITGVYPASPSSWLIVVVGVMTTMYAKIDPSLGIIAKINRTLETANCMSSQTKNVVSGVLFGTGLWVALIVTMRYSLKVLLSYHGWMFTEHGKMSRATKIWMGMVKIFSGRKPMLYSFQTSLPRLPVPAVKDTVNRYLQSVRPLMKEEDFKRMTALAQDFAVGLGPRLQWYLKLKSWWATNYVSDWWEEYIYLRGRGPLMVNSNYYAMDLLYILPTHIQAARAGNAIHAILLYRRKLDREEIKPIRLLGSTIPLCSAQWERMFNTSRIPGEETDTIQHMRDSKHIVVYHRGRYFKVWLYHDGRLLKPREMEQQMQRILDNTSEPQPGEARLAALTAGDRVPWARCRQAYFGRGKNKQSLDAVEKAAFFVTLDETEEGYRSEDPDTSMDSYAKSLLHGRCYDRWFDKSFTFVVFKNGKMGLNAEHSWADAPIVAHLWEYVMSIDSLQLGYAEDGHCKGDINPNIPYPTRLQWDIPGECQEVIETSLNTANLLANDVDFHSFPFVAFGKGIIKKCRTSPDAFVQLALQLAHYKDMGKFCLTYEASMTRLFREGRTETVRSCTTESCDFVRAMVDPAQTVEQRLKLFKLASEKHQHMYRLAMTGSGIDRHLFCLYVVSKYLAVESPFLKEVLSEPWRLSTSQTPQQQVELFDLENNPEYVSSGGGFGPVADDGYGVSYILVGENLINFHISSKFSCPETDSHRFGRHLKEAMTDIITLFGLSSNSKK
Experiment: Carnitine palmitoyltransferase-1 (CPT-1) assay in permeabilized MCF-7 cells
Assay type: cell-based
Conditions: MCF at 10 ug.ml
Protocol: Carnitine Palmitoyltransferase-1 (CPT-1) Assay
CPT-1 catalyzes the ATP dependent transfer of long-chain fatty acids from acyl-CoA to acyl-carnitine that is inhibited by malonyl-CoA. As CPT-1 requires the mitochondrial membrane for activity, enzyme activity is measured in permeabilized cells or mitochondria This assay uses permeabilized cells to measure the transfer of [methyl-^14C]L-carnitine to the organically soluble acyl-carnitine deriviative.
MCF-7 cells are plated in DMEM with 10% fetal bovine serum at 10^6 cells in 24-well plates in triplicate for controls, drugs, and malonyl-CoA. Two hours before commencing the assay, drugs are added at the indicated concentrations made from stock solutions at 10 mg/ml in DMSO, vehicle controls consist of DMSO without drug. Since malonyl-CoA cannot enter intact cells, it is only added in the assay buffer to cells that have not been preincubated with drugs. Following overnight incubation at 37° C., the medium is removed and replaced with 700 μl of assay buffer consisting of: 50 mM imidazole, 70 mM KCl, 80 mM sucrose, 1 mM EGTA, 2 mM MgCl2, 1 mM DTT, 1 mM KCN, 1 mM ATP, 0.1% fatty acid free bovine serum albumin, 70 μM palmitoyl-CoA, 0.25 μCi [methyl-^14C]L-carnitine, 40 μg digitonin with drug, DMSO vehicle control, or 20 μM malonyl-CoA. […] The butanol phase is counted by liquid scintillation and represents the acylcarnitine derivative.

C=CCNC(=O)[C@@H]1C(=C)C(=O)O[C@H]1CCCCCCCC (racemic)
CPT I Stim: 400% of control/MCF
